Paper PMC8162746 (Cancer chemotherapy and pharmacology, 2021)
“And” between values parts separate entries of the source, which are not always exact repeats. Identical values can stand only once. “Also recorded” adds a separate entry of the source.

Tested on: patients with primary CNS and advanced solid tumors
Experiment: Phase I dose-escalation trial of oral AR-42: safety and tolerability
Assay type: in vivo
[1] = 17 patients evaluable for toxicity

**Q.** `CC(C)[C@H](C(=O)Nc1ccc(C(=O)NO)cc1)c1ccccc1` [AR-42] was tested. Which Treatment-related deaths (17 patients) did it give?
**A.** no treatment-related deaths

**Q.** And the “Grade 3 TRAE anemia” value [1]?
**A.** 2 n

**Q.** What about the “Grade 3 TRAE anorexia” value [1] of the same compound?
**A.** 1 n

**Q.** What about the “Grade 3 TRAE hematuria” value [1] of the same compound?
**A.** 1 n

**Q.** What about the “Grade 3 TRAE hypophosphatemia” value [1] of the same compound?
**A.** 3 n

**Q.** What about the “Grade 3 TRAE lymphopenia” value [1] of the same compound?
**A.** 3 n

**Q.** And the “Grade 3 TRAE nausea” value [1]?
**A.** 2 n

**Q.** And the “Grade 3 TRAE thrombocytopenia” value [1]?
**A.** 5 n

**Q.** And the “Grade 3 TRAE venous thromboembolism” value [1]?
**A.** 1 n

**Q.** What about the “Grade 3 TRAE weight loss” value [1] of the same compound?
**A.** 1 n

**Q.** And the “Cardiac toxicity observed (QTc prolongation)” value (17 patients, event at 30 mg)?
**A.** one patient with a grade 1 QTc prolongation; also recorded: one patient who experienced a grade 1 QTc prolongation

**Q.** And the “Anemia, treatment-related adverse event, All grades” value (N=17, 30-80 mg)?
**A.** 10 n (%) and 10 (58.8%) n (%)

**Q.** And the “Anemia, treatment-related adverse event, Grade 1–2” value (N=17, 30-80 mg)?
**A.** 8 (47.1%) n (%)

**Q.** And the “Anemia, treatment-related adverse event, Grade 3–4” value (N=17, 30-80 mg)?
**A.** 2 (11.8%) n (%)

**Q.** And the “Anorexia, treatment-related adverse event, All grades” value (N=17, 30-80 mg)?
**A.** 5 (29.4%) n (%)

**Q.** And the “Anorexia, treatment-related adverse event, Grade 1–2” value (N=17, 30-80 mg)?
**A.** 4 (23.5%) n (%)

**Q.** What about the “Anorexia, treatment-related adverse event, Grade 3–4” value (N=17, 30-80 mg) of the same compound?
**A.** 1 (5.9%) n (%)

**Q.** And the “Constipation, treatment-related adverse event, All grades” value (N=17, 30-80 mg)?
**A.** 4 (23.5%) n (%)

**Q.** And the “Constipation, treatment-related adverse event, Grade 1–2” value (N=17, 30-80 mg)?
**A.** 4 (23.5%) n (%)

**Q.** And the “Cough, treatment-related adverse event, All grades” value (N=17, 30-80 mg)?
**A.** 2 (11.8%) n (%)

**Q.** What about the “Cough, treatment-related adverse event, Grade 1–2” value (N=17, 30-80 mg) of the same compound?
**A.** 2 (11.8%) n (%)

**Q.** What about the “Dehydration, treatment-related adverse event, All grades” value (N=17, 30-80 mg) of the same compound?
**A.** 2 (11.8%) n (%)

**Q.** And the “Dehydration, treatment-related adverse event, Grade 1–2” value (N=17, 30-80 mg)?
**A.** 2 (11.8%) n (%)

**Q.** And the “Diarrhea, treatment-related adverse event, All grades” value (N=17, 30-80 mg)?
**A.** 6 n (%) and 6 (35.3%) n (%)

**Q.** What about the “Diarrhea, treatment-related adverse event, Grade 1–2” value (N=17, 30-80 mg) of the same compound?
**A.** 6 (35.3%) n (%)

**Q.** What about the “Dizziness, treatment-related adverse event, All grades” value (N=17, 30-80 mg) of the same compound?
**A.** 4 (23.5%) n (%)

**Q.** And the “Dizziness, treatment-related adverse event, Grade 1–2” value (N=17, 30-80 mg)?
**A.** 4 (23.5%) n (%)

**Q.** What about the “Dry mouth, treatment-related adverse event, All grades” value (N=17, 30-80 mg) of the same compound?
**A.** 3 (17.6%) n (%)

**Q.** What about the “Dry mouth, treatment-related adverse event, Grade 1–2” value (N=17, 30-80 mg) of the same compound?
**A.** 3 (17.6%) n (%)

**Q.** And the “Dysgeusia, treatment-related adverse event, All grades” value (N=17, 30-80 mg)?
**A.** 3 (17.6%) n (%)

**Q.** And the “Dysgeusia, treatment-related adverse event, Grade 1–2” value (N=17, 30-80 mg)?
**A.** 3 (17.6%) n (%)

**Q.** And the “Elevated alkaline phosphatase, treatment-related adverse event, All grades” value (N=17, 30-80 mg)?
**A.** 4 (23.5%) n (%)

**Q.** And the “Elevated alkaline phosphatase, treatment-related adverse event, Grade 1–2” value (N=17, 30-80 mg)?
**A.** 4 (23.5%) n (%)

**Q.** What about the “Elevated creatinine, treatment-related adverse event, All grades” value (N=17, 30-80 mg) of the same compound?
**A.** 8 n (%) and 8 (47.1%) n (%)

**Q.** What about the “Elevated creatinine, treatment-related adverse event, Grade 1–2” value (N=17, 30-80 mg) of the same compound?
**A.** 8 (47.1%) n (%)

**Q.** And the “Fatigue, treatment-related adverse event, All grades” value (N=17, 30-80 mg)?
**A.** 11 (64.7%) n (%)

**Q.** And the “Fatigue, treatment-related adverse event, Grade 1–2” value (N=17, 30-80 mg)?
**A.** 11 (64.7%) n (%)

**Q.** What about the “Headache, treatment-related adverse event, All grades” value (N=17, 30-80 mg) of the same compound?
**A.** 3 (17.6%) n (%)

**Q.** And the “Headache, treatment-related adverse event, Grade 1–2” value (N=17, 30-80 mg)?
**A.** 3 (17.6%) n (%)

**Q.** What about the “Hematuria, treatment-related adverse event, All grades” value (N=17, 30-80 mg) of the same compound?
**A.** 1 (5.9%) n (%)

**Q.** And the “Hematuria, treatment-related adverse event, Grade 3–4” value (N=17, 30-80 mg)?
**A.** 1 (5.9%) n (%)

**Q.** And the “Hypermagnesemia, treatment-related adverse event, All grades” value (N=17, 30-80 mg)?
**A.** 2 (11.8%) n (%)

**Q.** What about the “Hypermagnesemia, treatment-related adverse event, Grade 1–2” value (N=17, 30-80 mg) of the same compound?
**A.** 2 (11.8%) n (%)

**Q.** And the “Hypernatremia, treatment-related adverse event, All grades” value (N=17, 30-80 mg)?
**A.** 2 (11.8%) n (%)

**Q.** What about the “Hypernatremia, treatment-related adverse event, Grade 1–2” value (N=17, 30-80 mg) of the same compound?
**A.** 2 (11.8%) n (%)

**Q.** What about the “Hypersomnia, treatment-related adverse event, All grades” value (N=17, 30-80 mg) of the same compound?
**A.** 2 (11.8%) n (%)

**Q.** What about the “Hypersomnia, treatment-related adverse event, Grade 1–2” value (N=17, 30-80 mg) of the same compound?
**A.** 2 (11.8%) n (%)

**Q.** And the “Hypoalbuminemia, treatment-related adverse event, All grades” value (N=17, 30-80 mg)?
**A.** 5 (29.4%) n (%)

**Q.** And the “Hypoalbuminemia, treatment-related adverse event, Grade 1–2” value (N=17, 30-80 mg)?
**A.** 5 (29.4%) n (%)

**Q.** What about the “Hyponatremia, treatment-related adverse event, All grades” value (N=17, 30-80 mg) of the same compound?
**A.** 3 (17.6%) n (%)

**Q.** And the “Hyponatremia, treatment-related adverse event, Grade 1–2” value (N=17, 30-80 mg)?
**A.** 3 (17.6%) n (%)

**Q.** And the “Hypophosphatemia, treatment-related adverse event, All grades” value (N=17, 30-80 mg)?
**A.** 7 n (%) and 7 (41.2%) n (%)

**Q.** What about the “Hypophosphatemia, treatment-related adverse event, Grade 1–2” value (N=17, 30-80 mg) of the same compound?
**A.** 4 (23.5%) n (%)

**Q.** And the “Hypophosphatemia, treatment-related adverse event, Grade 3–4” value (N=17, 30-80 mg)?
**A.** 3 (17.6%) n (%)

**Q.** What about the “Impaired concentration, treatment-related adverse event, All grades” value (N=17, 30-80 mg) of the same compound?
**A.** 3 (17.6%) n (%)

**Q.** And the “Impaired concentration, treatment-related adverse event, Grade 1–2” value (N=17, 30-80 mg)?
**A.** 3 (17.6%) n (%)

**Q.** What about the “Leukopenia, treatment-related adverse event, All grades” value (N=17, 30-80 mg) of the same compound?
**A.** 8 n (%) and 8 (47.1%) n (%)

**Q.** What about the “Leukopenia, treatment-related adverse event, Grade 1–2” value (N=17, 30-80 mg) of the same compound?
**A.** 8 (47.1%) n (%)

**Q.** What about the “Limb edema, treatment-related adverse event, All grades” value (N=17, 30-80 mg) of the same compound?
**A.** 2 (11.8%) n (%)

**Q.** What about the “Limb edema, treatment-related adverse event, Grade 1–2” value (N=17, 30-80 mg) of the same compound?
**A.** 2 (11.8%) n (%)

**Q.** What about the “Lymphopenia, treatment-related adverse event, All grades” value (N=17, 30-80 mg) of the same compound?
**A.** 7 n (%) and 7 (41.2%) n (%)

**Q.** And the “Lymphopenia, treatment-related adverse event, Grade 1–2” value (N=17, 30-80 mg)?
**A.** 4 (23.5%) n (%)

**Q.** And the “Lymphopenia, treatment-related adverse event, Grade 3–4” value (N=17, 30-80 mg)?
**A.** 3 (17.6%) n (%)

**Q.** What about the “Myalgia, treatment-related adverse event, All grades” value (N=17, 30-80 mg) of the same compound?
**A.** 4 (23.5%) n (%)

**Q.** And the “Myalgia, treatment-related adverse event, Grade 1–2” value (N=17, 30-80 mg)?
**A.** 4 (23.5%) n (%)

**Q.** And the “Nausea, treatment-related adverse event, All grades” value (N=17, 30-80 mg)?
**A.** 10 n (%) and 10 (58.8%) n (%)
